Measured values taken from ChEMBL document CHEMBL1201862, “PubChem BioAssay data set” (2004).
Calls of active or inactive are those of the source.

Tests used:
[1] = target: Glutathione-S-transferase (Schistosoma japonicum, UniProt Q26513); assay: biotin-GST/anti-GST TR-FRET signal inhibitors, dose response, artefact control for Vif-APOBEC3G degradation inhibitor project, biochemical (AID 1117362); assay type: functional
[2] = target: Induced myeloid leukemia cell differentiation protein Mcl-1 (Homo sapiens, UniProt Q07820); assay type: functional
Chain of Induced myeloid leukemia cell differentiation protein Mcl-1 (Q07820 whole entry): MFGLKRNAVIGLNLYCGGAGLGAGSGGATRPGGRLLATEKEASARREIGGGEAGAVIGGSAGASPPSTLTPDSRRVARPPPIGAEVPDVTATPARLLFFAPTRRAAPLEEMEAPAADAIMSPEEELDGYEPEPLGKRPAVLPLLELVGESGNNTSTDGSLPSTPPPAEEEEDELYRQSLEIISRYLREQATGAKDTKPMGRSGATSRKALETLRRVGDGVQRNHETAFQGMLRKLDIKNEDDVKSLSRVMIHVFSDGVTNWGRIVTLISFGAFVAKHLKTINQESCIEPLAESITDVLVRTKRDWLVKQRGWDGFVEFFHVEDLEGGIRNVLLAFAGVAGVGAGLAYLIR

[3] = target: Albumin (Bos taurus, UniProt P02769); assay: Counterscreen for inhibitors of T-cell receptor (TCR)-CD3 interaction: Fluorescence-based biochemical high throughput dose response assay to identify inhibitors of T-cell receptor (TCR)-CD3 interaction using a TAMRA-labeled BSA probe.; assay type: functional
Chain of Albumin (P02769 whole entry): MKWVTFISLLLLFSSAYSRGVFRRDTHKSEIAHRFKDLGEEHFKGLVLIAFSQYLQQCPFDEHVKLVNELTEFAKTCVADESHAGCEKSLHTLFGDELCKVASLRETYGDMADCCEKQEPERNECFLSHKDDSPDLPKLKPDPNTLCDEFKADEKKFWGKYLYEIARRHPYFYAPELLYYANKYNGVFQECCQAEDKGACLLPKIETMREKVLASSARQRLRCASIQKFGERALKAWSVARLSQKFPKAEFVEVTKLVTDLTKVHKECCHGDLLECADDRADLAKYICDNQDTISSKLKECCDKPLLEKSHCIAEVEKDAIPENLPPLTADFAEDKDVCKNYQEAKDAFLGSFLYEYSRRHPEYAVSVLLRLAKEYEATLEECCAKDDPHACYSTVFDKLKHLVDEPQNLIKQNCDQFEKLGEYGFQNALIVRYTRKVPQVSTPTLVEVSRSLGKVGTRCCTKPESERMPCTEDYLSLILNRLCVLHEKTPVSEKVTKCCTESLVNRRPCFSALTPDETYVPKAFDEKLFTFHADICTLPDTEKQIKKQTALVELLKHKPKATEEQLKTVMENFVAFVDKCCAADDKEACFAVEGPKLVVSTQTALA

[4] = target: T1, Polyadenylate-binding protein 1 (Homo sapiens, UniProt P11940); assay: PABP1 MLLE–PAM2 binding inhibitor potency, dose response, biochemical, fluorescence polarization, FITC-PAM2 peptide (AID 602259); assay type: functional; conditions: read-out: IC50_Mean
T1 sequence (P11940 whole entry): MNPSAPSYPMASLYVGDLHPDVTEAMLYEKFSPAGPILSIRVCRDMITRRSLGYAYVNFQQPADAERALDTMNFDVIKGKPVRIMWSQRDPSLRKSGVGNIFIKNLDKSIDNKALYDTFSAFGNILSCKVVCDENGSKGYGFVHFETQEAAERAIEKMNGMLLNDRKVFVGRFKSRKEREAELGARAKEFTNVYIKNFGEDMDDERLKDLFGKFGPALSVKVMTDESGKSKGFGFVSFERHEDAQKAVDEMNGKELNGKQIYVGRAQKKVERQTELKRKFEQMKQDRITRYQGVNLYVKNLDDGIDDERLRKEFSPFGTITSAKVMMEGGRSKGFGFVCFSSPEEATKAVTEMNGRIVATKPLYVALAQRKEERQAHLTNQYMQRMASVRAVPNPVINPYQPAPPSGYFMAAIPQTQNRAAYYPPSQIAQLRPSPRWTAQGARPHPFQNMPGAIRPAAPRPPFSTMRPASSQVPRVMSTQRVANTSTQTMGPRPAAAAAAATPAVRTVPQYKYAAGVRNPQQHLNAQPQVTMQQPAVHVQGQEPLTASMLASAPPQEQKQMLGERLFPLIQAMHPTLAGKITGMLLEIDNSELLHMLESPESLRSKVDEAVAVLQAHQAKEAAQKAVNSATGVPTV

[5] = target: T2, ORF 73 (Human herpesvirus 8, UniProt O40947); assay: inhibitors of C-LANA binding to LBS DNA, dose response, biochemical, fluorescence polarization, cherry-picked samples (AID 504725); design: species or system Human gammaherpesvirus 8;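 further: fluorescence polarization of a labeled DNA duplex reporting LANA DNA binding; potency is for inhibitors that block LANA binding to the DNA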
T2 sequence (O40947 whole entry): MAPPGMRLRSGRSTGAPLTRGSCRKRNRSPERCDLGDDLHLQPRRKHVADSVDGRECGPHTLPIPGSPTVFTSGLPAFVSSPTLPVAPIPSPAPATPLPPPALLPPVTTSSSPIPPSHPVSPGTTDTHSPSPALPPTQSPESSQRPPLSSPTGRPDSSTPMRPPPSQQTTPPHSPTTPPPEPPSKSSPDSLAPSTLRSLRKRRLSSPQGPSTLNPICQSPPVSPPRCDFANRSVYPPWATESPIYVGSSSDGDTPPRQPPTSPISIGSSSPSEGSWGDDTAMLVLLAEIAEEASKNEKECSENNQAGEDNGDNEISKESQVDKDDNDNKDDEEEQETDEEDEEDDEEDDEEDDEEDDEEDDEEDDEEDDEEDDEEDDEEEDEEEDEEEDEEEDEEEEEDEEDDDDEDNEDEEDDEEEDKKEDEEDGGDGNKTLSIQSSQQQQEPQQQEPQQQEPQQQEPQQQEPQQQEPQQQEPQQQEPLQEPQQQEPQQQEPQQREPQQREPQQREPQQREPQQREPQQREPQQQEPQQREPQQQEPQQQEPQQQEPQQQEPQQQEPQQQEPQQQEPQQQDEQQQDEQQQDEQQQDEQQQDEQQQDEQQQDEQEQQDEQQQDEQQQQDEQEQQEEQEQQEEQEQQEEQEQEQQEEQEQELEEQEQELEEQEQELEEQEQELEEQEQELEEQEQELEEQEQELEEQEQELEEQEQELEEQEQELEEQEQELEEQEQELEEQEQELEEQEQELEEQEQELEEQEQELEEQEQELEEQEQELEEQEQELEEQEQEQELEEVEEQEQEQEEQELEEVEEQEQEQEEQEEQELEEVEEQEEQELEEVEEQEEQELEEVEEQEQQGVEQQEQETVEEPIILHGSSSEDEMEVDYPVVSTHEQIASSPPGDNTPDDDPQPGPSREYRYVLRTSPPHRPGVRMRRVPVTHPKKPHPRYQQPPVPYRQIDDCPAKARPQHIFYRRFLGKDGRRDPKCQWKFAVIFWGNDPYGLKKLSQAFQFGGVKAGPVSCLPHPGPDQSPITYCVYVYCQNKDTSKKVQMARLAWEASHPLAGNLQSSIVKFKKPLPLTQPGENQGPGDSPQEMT

[6] = target: T1, Polyadenylate-binding protein 1; assay: PABP1 MLLE–PAM2 interaction inhibitors, dose response, miRNA deadenylation inhibitor project, biochemical, fluorescence polarization, Cy5-PAM2 peptide, secondary (AID 602260); assay type: functional; conditions: read-out: IC50_Mean
[7] = target: T3, Apoptotic protease-activating factor 1 (Homo sapiens, UniProt O14727); assay type: functional
T3 sequence (O14727 whole entry): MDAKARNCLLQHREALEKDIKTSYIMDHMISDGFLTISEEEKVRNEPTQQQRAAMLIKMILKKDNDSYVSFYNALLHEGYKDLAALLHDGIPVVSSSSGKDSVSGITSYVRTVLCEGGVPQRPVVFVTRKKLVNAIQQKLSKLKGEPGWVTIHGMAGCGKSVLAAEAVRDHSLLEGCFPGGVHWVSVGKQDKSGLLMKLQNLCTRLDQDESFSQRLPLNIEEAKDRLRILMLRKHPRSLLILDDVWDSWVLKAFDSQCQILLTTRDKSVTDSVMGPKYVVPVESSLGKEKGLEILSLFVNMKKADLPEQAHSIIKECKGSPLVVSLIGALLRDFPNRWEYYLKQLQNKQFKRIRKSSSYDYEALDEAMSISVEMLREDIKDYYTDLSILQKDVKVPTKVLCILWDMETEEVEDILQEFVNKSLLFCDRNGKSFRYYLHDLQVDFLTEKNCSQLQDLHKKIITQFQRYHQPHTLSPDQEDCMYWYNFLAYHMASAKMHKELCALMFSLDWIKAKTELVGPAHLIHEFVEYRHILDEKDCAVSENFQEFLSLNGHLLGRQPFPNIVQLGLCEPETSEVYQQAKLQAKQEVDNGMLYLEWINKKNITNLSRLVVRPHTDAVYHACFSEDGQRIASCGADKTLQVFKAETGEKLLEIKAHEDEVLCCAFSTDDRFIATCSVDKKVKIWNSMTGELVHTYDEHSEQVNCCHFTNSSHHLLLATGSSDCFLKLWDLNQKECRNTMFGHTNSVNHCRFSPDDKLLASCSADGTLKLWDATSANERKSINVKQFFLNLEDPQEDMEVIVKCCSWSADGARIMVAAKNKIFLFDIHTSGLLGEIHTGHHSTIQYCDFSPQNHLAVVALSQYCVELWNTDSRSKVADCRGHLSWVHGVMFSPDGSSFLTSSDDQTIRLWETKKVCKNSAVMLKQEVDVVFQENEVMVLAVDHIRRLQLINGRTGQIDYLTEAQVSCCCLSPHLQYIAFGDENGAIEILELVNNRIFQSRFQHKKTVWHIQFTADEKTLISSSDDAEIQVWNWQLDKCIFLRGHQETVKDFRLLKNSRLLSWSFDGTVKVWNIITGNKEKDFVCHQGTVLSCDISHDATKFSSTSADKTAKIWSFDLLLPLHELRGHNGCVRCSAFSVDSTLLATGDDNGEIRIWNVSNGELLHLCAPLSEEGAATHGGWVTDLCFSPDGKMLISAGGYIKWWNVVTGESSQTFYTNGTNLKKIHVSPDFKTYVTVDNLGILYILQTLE

[8] = target: Dual specificity protein phosphatase 3 (Homo sapiens, UniProt P51452); assay: SAR VHR1 Fluorescent Assay for In Vitro dose response studies. [Related pubchem assays (depositor defined):AID1654, AID1661, AID1878, AID1992, AID2004, AID2070, AID2085]; assay type: functional
Chain of Dual specificity protein phosphatase 3 (P51452 whole entry): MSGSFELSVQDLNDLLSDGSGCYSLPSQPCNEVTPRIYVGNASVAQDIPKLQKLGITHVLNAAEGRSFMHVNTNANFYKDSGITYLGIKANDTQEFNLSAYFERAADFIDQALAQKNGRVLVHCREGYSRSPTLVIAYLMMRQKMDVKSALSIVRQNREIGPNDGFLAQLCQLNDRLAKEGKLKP

[9] = target: Large T antigen (Simian virus 40, UniProt P03070); assay type: functional, Betapolyomavirus macacae;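 further: Confirmatory-stage PubChem screen for compounds that inhibit SV40 T antigen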
Chain of Large T antigen (P03070 whole entry): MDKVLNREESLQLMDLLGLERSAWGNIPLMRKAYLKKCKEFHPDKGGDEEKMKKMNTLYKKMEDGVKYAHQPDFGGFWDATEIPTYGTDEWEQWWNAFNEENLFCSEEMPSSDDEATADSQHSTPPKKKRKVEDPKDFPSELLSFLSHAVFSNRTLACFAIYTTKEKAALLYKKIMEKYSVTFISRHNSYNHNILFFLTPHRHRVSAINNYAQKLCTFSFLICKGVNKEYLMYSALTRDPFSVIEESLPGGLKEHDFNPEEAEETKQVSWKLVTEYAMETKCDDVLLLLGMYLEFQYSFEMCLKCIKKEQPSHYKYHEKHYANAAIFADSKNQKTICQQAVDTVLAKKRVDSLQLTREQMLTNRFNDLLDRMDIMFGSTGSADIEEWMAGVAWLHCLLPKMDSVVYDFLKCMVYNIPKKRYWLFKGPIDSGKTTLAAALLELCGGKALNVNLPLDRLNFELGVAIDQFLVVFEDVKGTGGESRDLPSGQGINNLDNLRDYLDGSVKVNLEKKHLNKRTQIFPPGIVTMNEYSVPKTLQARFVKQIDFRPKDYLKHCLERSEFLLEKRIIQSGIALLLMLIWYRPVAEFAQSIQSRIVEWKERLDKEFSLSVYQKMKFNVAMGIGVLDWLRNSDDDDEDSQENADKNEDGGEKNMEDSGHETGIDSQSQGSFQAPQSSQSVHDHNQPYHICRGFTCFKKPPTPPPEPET

[10] = target: Eukaryotic translation initiation factor 4E (Mus musculus, UniProt P63073); assay: eIF4E–eIF4G protein interaction inhibitors, dose response, biochemical, TR-FRET (AID 855); assay type: functional;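 further: potency for disrupting eIF4E binding to eIF4GI seen as loss of FRET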
Chain of Eukaryotic translation initiation factor 4E (P63073 whole entry): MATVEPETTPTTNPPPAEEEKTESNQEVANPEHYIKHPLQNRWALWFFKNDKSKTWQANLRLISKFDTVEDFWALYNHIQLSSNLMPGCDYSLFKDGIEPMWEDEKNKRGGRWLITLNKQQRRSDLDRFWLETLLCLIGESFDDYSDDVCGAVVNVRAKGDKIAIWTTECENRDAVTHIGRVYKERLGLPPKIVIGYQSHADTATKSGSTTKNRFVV

[11] = target: Genome polyprotein (dengue virus type 2, UniProt P29990); assay: Dengue-2 NS5 methyltransferase inhibitors, primary screen, biochemical, confirmation dose response (AID 588689); assay type: functional
Chain of Genome polyprotein (P29990 2492-3391 limits assumed): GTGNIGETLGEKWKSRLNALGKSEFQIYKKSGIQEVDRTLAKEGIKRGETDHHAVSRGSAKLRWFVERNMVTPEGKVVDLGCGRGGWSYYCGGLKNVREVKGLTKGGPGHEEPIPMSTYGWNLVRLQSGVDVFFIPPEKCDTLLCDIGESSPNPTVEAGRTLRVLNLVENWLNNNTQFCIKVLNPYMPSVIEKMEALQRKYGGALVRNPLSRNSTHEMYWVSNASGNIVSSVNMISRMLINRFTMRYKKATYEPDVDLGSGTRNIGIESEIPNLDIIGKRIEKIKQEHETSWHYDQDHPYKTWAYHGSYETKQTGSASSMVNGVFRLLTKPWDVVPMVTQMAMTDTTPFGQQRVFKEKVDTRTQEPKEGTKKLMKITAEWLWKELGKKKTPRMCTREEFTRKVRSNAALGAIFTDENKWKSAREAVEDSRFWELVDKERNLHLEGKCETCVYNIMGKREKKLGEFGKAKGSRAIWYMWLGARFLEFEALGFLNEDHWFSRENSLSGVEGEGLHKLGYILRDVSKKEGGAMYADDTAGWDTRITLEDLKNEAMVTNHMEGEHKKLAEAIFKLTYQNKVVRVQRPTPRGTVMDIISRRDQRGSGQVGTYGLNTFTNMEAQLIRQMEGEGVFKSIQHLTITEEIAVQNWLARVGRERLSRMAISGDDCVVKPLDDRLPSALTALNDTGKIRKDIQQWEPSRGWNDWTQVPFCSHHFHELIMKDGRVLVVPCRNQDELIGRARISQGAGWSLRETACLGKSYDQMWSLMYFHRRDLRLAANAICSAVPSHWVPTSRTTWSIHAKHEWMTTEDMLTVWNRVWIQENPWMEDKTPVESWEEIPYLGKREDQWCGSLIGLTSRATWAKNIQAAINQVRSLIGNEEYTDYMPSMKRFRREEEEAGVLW

[12] = target: T4, Tyrosine-protein phosphatase non-receptor type 7 (Homo sapiens, UniProt P35236); assay: redox-dependent HePTP inhibition, mechanism study, biochemical, fluorescence (AID 2068); assay type: functional
T4 sequence (P35236 whole entry): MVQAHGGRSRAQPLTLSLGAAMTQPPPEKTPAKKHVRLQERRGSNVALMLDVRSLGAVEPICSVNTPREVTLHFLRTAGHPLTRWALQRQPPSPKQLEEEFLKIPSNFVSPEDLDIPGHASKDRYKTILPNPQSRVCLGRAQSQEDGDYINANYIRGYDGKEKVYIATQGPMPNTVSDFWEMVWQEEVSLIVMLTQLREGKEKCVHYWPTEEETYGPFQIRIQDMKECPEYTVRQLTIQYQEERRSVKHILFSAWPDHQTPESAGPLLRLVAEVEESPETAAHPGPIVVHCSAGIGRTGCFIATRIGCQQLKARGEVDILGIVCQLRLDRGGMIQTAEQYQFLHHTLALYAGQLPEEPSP

[13] = tested on: Salmon testes DNA; assay: DNA intercalators displacing acridine orange, dose response, artefact control for KSHV LANA DNA-binding inhibitor project, biochemical, fluorescence polarization, cherry-picked samples, set 2 (AID 504727); design: species or system Salmonidae

Chain of Glutathione-S-transferase (Q26513 whole entry): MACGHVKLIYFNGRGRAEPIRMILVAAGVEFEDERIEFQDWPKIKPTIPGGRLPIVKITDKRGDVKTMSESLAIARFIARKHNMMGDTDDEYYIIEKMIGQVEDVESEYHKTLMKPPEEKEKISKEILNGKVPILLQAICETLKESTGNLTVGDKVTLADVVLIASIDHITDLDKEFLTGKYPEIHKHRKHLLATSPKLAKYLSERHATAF

For `COCCNC(=O)Nc1ccc2nc(-c3ccco3)c(-c3ccco3)nc2c1`, the IC50 [1] was > 100 µM (active), the IC50 [2] was 0.831 µM (active) and the IC50 [3] was > 94.1 µM (inactive). For the same compound, the IC50 [4] was 39.2 µM (inactive), the AC50 [5] was 23.5 µM (active) and the IC50 [6] was > 66 µM (inactive). The IC50 [7] was 52 µM (active), the IC50 [8] was 0.492 µM (active) and the IC50 [9] was > 100 µM (active). For the same compound, the IC50 [10] was 50 µM (inactive), the IC50 [11] was 27.9 µM (active) and the IC50 [12] was 0.198 µM (active). For the same compound, the AC50 [13] was 63.1 µM (active).
